Experimental data as given in article PMC12055592, “Post-symptomatic NLRP3 inhibition rescues cognitive impairment and mitigates amyloid and tau driven neurodegeneration” (Npj Dementia, 2025).

Experiments:
5XFAD/Rubicon KO mice [1] = experiment: Novel object recognition in 5XFAD/Rubicon KO mice; format: in vivo, mouse
Protocol: (§1) 5XFAD/Rubicon KO mice received vehicle (0.5% w/v methylcellulose/0.1% w/v Tween® 80 in water) or VEN-02XX (0.01, 1, or 20 mg/kg) every day by oral gastric gavage for 9 weeks.
Mice were acclimated to the testing room for 48 h. For habituation, mice were allowed to explore an open-field box (50 cm × 50 cm) for 15 min per day over the course of 48 h. Mice were then exposed to two identical objects for 10 min on the day of testing. One hour later, a novel object was introduced, and mice were allowed to explore for 5 min during the test phase. The time spent exploring each object was quantified using AnyMaze video tracking software using the manufacturer define NOR protocol. Novel object preference (%) and the discrimination index (time with novel)/(novel + familiar) * 100) were calculated for each mouse using AnyMaze software.

5XFAD/Rubicon KO mice [2] = experiment: Immunoblotting of NeuN and MAP2 in cortical and hippocampal lysates of 5XFAD/Rubicon KO mice; format: in vivo, mouse; settings: 20 mg/kg vs vehicle, not statistically significant
Protocol: as §1
Ten ug of protein was separated by gel electrophoresis (one gel loaded with cortex samples and one gel loaded with hippocampus samples), on a 4–15% gradient Tris-glycine gel and transferred to PVDF membranes using the TransBlot Turbo semi-dry transfer system (Bio-Rad Laboratories, Hercules, CA). The membranes were blocked in Tris-buffered saline, 0.1% Tween 20 (1X TBST) with 5% milk for 1 h at room temperature followed by overnight incubation at 4 °C with primary antibodies (1:1000 rabbit anti-NeuN [EMD Millipore, Burlington, MA] and 1:10,000 rabbit anti-Vinculin [Cell Signaling, Boston, MA]) diluted in TBST with 1% milk. For the complete list of antibodies please reference Supplementary Table 2. The next day, membranes were washed three times with 1XTBST for 10 min before incubation with HRP-conjugated secondary antibody (1:500 goat anti-rabbit [Cedarlane Labs, Burlington, ON]) for 90 min at room temperature. Membranes were then washed three times with 1XTBST for 10 min and developed with Pierce ECL western blotting substrate (Thermo Fisher Scientific) and visualized on a ChemiDoc imaging system (Bio-Rad Laboratories). […]

5XFAD/Rubicon KO mice [3] = experiment: Brain cytokine/chemokine quantification (ECLIA) in 5XFAD/Rubicon KO mice; format: in vivo, mouse; settings: 9 weeks PO QD
Protocol: as §1
Brain tissue was homogenized in PBS, pH 7.4 with 1X Halt™ protease inhibitor cocktail (Thermo Fisher Scientific, Waltham, MA) using a Bead Ruptor homogenizer (Omni International, Kennesaw, GA). Homogenates were clarified by centrifugation at 10,000 × g for 10 min. The crude homogenate was used for quantification of VEN-02XX levels, as described below. Total protein concentrations were quantified from clarified supernatants in a Pierce BCA protein assay (Thermo Fisher Scientific). Cytokine and chemokine levels were quantified using an electrochemiluminescence immunoassay (ECLIA) for IL-1β (total), TNFα, IL-6 and IP-10 (U-PLEX Custom Biomarker Group 1 (mouse) assay, Meso Scale Discovery, Rockville, MD) following the manufacturer’s instructions. Neurofilament light chain plasma levels were quantified using an enzyme-linked immunosorbent assay (ELISA) from Uman Diagnostics (CAT#: 20-8002) following the manufacturer’s instructions.

[4] = Mouse brain pharmacokinetic study (brain-to-plasma partition); format: in vivo; settings: male, single oral dose 20 mg/kg
Protocol: Five groups of n = 3 male CD1 mice (weight 20–30 g, age 6–8 weeks old) were dosed by oral gavage with 20 mg/kg of VEN-02XX suspended in 0.5% w/v methylcellulose/0.1% w/v Tween 80, at a dose volume of 10 mL/kg. Food and water were available ad libitum to all animals. At a specific timepoint for each group (0.25, 1, 2, 4, and 8 h), 0.2 mL of blood was collected from the dorsal metatarsal vein and transferred into plastic micro centrifuge tubes with EDTA-K2 as anticoagulant, then animals were terminally anaesthetized with a rising concentration of CO2 gas for about 1 min, brains were collected and rinsed with cold PBS. […]
Concentrations of VEN-02XX in plasma and brain were determined by a LC-MS/MS assay. […] Two transitions were monitored for VEN-02XX and the more sensitive transition with less interference (397.1 –> 270.1) was used for quantification.
Pharmacokinetic parameters were determined by non-compartmental analysis using WinNonLin software (Phoenix^TM, version 8.3), and the following parameters were calculated from the plasma concentrations versus time data: T1/2, Cmax, Tmax, AUCinf, AUClast. When appropriate, the brain Kp was calculated as AUClast(brain)/AUClast(plasma). Free brain partition coefficient (Kpuu) was calculated using the free fraction in plasma and brain measured in a high throughput equilibrium dialysis assay.

In the case of `CC(C)(O)CNc1nnc(-c2ccc(Cl)cc2C(F)(F)F)c2ccncc12` [VEN-02XX], the novel object recognition (5XFAD/Rubicon KO mice [1]; 9 weeks, 0.01, 1, 20 mg/kg PO QD vs vehicle) is reported as “striking dose-dependent improvement”, the “novel object recognition, learning and memory” value (5XFAD/Rubicon KO mice [1]; 9 weeks, 20 mg/kg PO QD) is reported as “restoration of learning and memory to near wild type control levels for most animals” and the “MAP2 expression (immunoblot, normalized to vinculin)” value (5XFAD/Rubicon KO mice [2]) is reported as “improved MAP2 levels”. The “NeuN protein expression (immunoblot, normalized to vinculin)” value (5XFAD/Rubicon KO mice [2]) was “consistent improvements in overall NeuN protein expression”, the “hippocampal IL-1β (total), IL-6, IP-10 and TNFα levels” value (5XFAD/Rubicon KO mice [3]; 20 mg/kg, levels comparable to WT, lack of statistical significance) was “notable reduction in all measured inflammatory markers” and the “hippocampal IL-1β” value (5XFAD/Rubicon KO mice [3]) was “almost complete ablation of IL-1β within the hippocampus”. For the same compound, the Kp ([4]; CD1, brain and plasma (total), AUClast (total drug), read-out: total brain-to-plasma partition coefficient, Kp) was 0.86 and the Kp uu ([4]; CD1, brain and plasma (unbound), AUClast (free drug), read-out: unbound brain-to-plasma partition coefficient, Kp,uu brain) was 0.39.
